This passage reports MIC, ED50 and dose excreted results from patent US5013841A, “Oxo quinoline derivatives” (Dainippon Pharmaceutical Co., Ltd., priority 1987, dated 1991).

For orientation: ED50 means the midpoint of the dose-response relation.

In one data set the test system is E. coli P-5101. The data set is described as follows: In vitro antibacterial activity (twofold agar-dilution method). Format: cell-based. The note with it: Escherichia coli, P5101; E. coli P-5101; agar dilution, 20 h, 37° C., calculated for free base; read-out: minimum inhibitory concentration (MIC). The procedure:
(§1) The figures in the table show minimum inhibitory concentrations (MIC) (μg/ml), calculated for free base. The minimum inhibitory concentration was determined by the twofold agar-dilution method, which was recommended by Japan Society of Chemotherapy (Chemotherapy, 29(1), 76(1981)), using Muller-Hinton agar. One loopful of an overnight culture of test organisms in Mueller-Hinton broth was inoculated onto 10-ml drug-containing agar layers in petri dishes. Bacterial inocula contained approximately 10^6 colonyl-formingunits. Bacterial growth was observed after 20-hour incubation at 37° C. The MIC was defined as the lowest drug concentration which prevented visible bacterial growth.

A further data set concerns Flavobacterium sp P-7201. Described as above. The data set is classed as cell-based. The note with it: read-out: minimum inhibitory concentration (MIC). The procedure: as §1
Another data set concerns S. aureus 209 JC-1. The description is as above. The settings on record: Staphylococcus aureus, read-out: minimum inhibitory concentration (MIC). Format: cell-based. The method, then: as §1
Another data set deals with S. aureus No. 80. The data set is described as above. The data set is classed as cell-based. The settings on record: Staphylococcus aureus; S. aureus No. 80; agar dilution, 20 h, 37° C., calculated for free base; read-out: minimum inhibitory concentration (MIC). The method, then:
as §1

For a further data set, the system named is S. epidermidis No. 8. Described as above. The settings on record: Staphylococcus epidermidis, read-out: minimum inhibitory concentration (MIC). Format: cell-based. The method, then: as §1
A further data set concerns S. marcescens IFO 3736. The description is as above. The data set is classed as cell-based. The settings on record: Serratia marcescens, IFO3736; S. marcescens IFO 3736; agar dilution, 20 h, 37° C., calculated for free base; read-out: minimum inhibitory concentration (MIC). The method, then: as §1
In a further data set the test system is S. pyogenes Cook. The description is as above. The data set is classed as cell-based. The note with it: Streptococcus pyogenes, 20 h, 37° C., calculated for free base, read-out: minimum inhibitory concentration (MIC). The procedure:
as §1

The test system of data set [1] is Staphylococcus aureus 50774. Format: in vivo, Staphylococcus aureus (male mice, Std-ddY). The note with it: Staphylococcus aureus, 50774, 336 h; mice, oral, twice (immediately and 6 h after intravenous infection), 14 days, calculated for free base; read-out: median effective dose (ED50). The source says: Staphylococcus aureus 50774
Intravenous infection with 5×10^8 cells per mouse suspended in saline.
For 7 days for other organisms.

In data set [2] the test system is Streptococcus pneumoniae 1 Neufeld. The data set is classed as in vivo, Streptococcus pneumoniae (male mice, Std-ddY). The settings on record: 336 h, mice, oral, four times (immediately, 6, 24 and 30 h after intraperitoneal infection), 14 days, calculated for free base, read-out: median effective dose (ED50).
A short description of data set [3]: Urinary excretion in mice (thin-layer cup-plated method, Escherichia coli Kp indicator). Format: in vivo. The note with it: mouse, urine, oral, 5 mg/kg, read-out: Urinary recovery for 24 hours. The procedure: A suspension containing each of compounds was orally administered to mice at a dose of 5 mg/kg. Urine was collected over a period of 24 hours after adminstration. The levels of the compounds in urine were determined by the thin-layer cup-plated method using Escherichia coli Kp as an indicator organism.

Data set [4] has as its system Streptococcus pyogenes A65. The settings on record: A65, in Mus musculus, po, 168 h, read-out: median effective dose (ED50).
Data set [5] deals with Pseudomonas aeruginosa 12. The note with it: Pseudomonas aeruginosa, 12, in Mus musculus, po, 168 h, read-out: median effective dose (ED50).

In brackets after ≈: the same amount, converted by molar mass. Like-named read-outs stand apart in the source and are kept apart here.

Consider `Nc1c(F)c(N2CCNCC2)cc2c1c(=O)c(C(=O)O)cn2C1CC1` [Compound 1], for which the MIC in the data set with E. coli P-5101 is 0.0063 mg/L (≈ 0.0182 µM); with Flavobacterium sp P-7201 (P7201, Flavobacterium sp P-7201, agar dilution, 20 h, 37° C., calculated for free base) it was 0.1 mg/L (≈ 0.289 µM); in the data set with S. aureus 209 JC-1 (209JC1, S. aureus 209 JC-1, agar dilution, 20 h, 37° C., calculated for free base), 0.025 mg/L (≈ 0.0722 µM); in the data set with S. aureus No. 80 it was 0.05 mg/L (≈ 0.144 µM); in the data set on S. epidermidis No. 8 (S. epidermidis No. 8, agar dilution, 20 h, 37° C., calculated for free base) it was 0.025 mg/L (≈ 0.0722 µM); in the data set on S. marcescens IFO 3736 it was 0.1 mg/L (≈ 0.289 µM). Further, in the data set with S. pyogenes Cook, the MIC is 0.2 mg/L (≈ 0.577 µM).

In the case of `C[C@@H]1CN(c2cc3c(c(N)c2F)c(=O)c(C(=O)O)cn3C2CC2)C[C@H](C)N1` [Compound 2, 5-amino-1-cyclopropyl-6-fluoro-7-(cis-3,5-dimethyl-1-piperazinyl)-1,4-dihydro-4-oxoquinoline-3-carboxylic acid], the MIC is 0.025 mg/L (≈ 0.0668 µM) in the data set on E. coli P-5101; 0.1 mg/L (≈ 0.267 µM) in the data set with Flavobacterium sp P-7201 (Flavobacterium, P7201, 20 h); 0.1 mg/L (≈ 0.267 µM) in the data set on S. aureus 209 JC-1 (209JC1, 20 h); 0.025 mg/L (≈ 0.0668 µM) in the data set on S. aureus No. 80; 0.1 mg/L (≈ 0.267 µM) in the data set on S. epidermidis No. 8 (NO.8, 20 h); 0.78 mg/L (≈ 2.08 µM) in the data set with S. marcescens IFO 3736. Besides, the MIC in the data set with S. pyogenes Cook is 0.39 mg/L (≈ 1.04 µM). The ED50 is 1.41 mg/kg in data set [1], 10.2 mg/kg in data set [2], 11.6 mg/kg in data set [4] and 1.98 mg/kg in data set [5]. In addition, in data set [3], the dose excreted at 24 h is 8.33%.
